This note sets out measurements from patent US20200405659A1, “COMPOSITION CONTAINING 2,3-BUTANEDIOL AS ACTIVE INGREDIENT” (GS CALTEX CORPORATION, priority 2018, published 2020).

A short description of experiment [1]: DPPH free radical elimination activity (anti-oxidation ratio). The note with it: for change of anti-oxidation ratio with the increase of the concentration: from 0.1 wt % to 1 wt %. How it is done:
To evaluate the anti-oxidative effects of 2,3-butanediol, the elimination activity of free radicals was measured using a 2,2-diphenyl-1-picrylhydrazyl (DPPH) analysis method. Particularly, an anti-oxidation ratio was calculated by Equation 2 below.
Anti-oxidation ratio (%)=[[(absorbance of specimen treated group−absorbance of specimen untreated group)/(absorbance of negative control group−absorbance of specimen untreated group)]×100 [Equation 2]
i) specimen untreated group: group allowing reaction of ultrapure water and methanol
ii) specimen treated group: group allowing reaction of specimen by each concentration and DPPH
iii) negative control group: group allowing reaction of ultrapure water and DPPH
According to the concentration shown in Table 2 below, diols were diluted with a methanol solvent to prepare specimens, and each specimen was reacted with DPPH, and absorbance was measured, and the anti-oxidation ratios calculated are shown in Table 2 below.
A general note: The DPPH test is a chemical assay of radical scavenging.

The subject of experiment [2] is collagenase (MMP-1). Put plainly: Collagenase (MMP-1) content in CCD-986SK cells (Human MMP-1 ELISA kit). The format is cell-based. The conditions noted are these: for Collagenase (MMP-1)(pg/mL) / MMP-1 content relative to untreated control (%): 48 hours; for MMP-1 content relative to untreated control (%): specimen-free = 100.00, decreased percent means collagenase restrained; for restraining effects of collagenase: compared with the Comparative Examples using 1,3-butanediol or 1,3-propanediol. As for the experimental part:
The anti-wrinkle effects of 2,3-butanediol were evaluated as the restraining effects of the decomposition of interstitial collagen, etc., by decreasing skin collagenase (for example, MMP-1).
To evaluate the anti-wrinkle effects of 2,3-butanediol, serum-free mediums composed of 99 mL of Dulbecco's modified eagle medium (Gibco) and 1 mL of Penicillin-streptomycin (Gibco), diluted with 2R,3S-butanediol, 2R,3R-butanediol, 1,3-butanediol and 1,3-propanediol in the concentrations shown in Table 3 below, were prepared.
In addition, cells CCD-986SK (ACTT CRL-6323™) were seeded in well plates by 1 mL with 5×10^4, and cultivated at 37° C. in a 5% CO2 cultivator for 24 hours. The cultivated cells were replaced with the mediums of the Examples and Comparative Examples and cultivated at 37° C. in a 5% CO2 cultivator for 48 hours.
A cell dissolution material was recovered, the protein content was measured using BSA protein assay reagent kit (Thermo scientific PIERCE, USA), the collagenase (MMP-1) content was measured suing Human MMP-1 ELISA kit (Sigma), and the results are shown in Table 4 below.
That is, the decreased percent calculated means that collagenase is effectively restrained.
A general note: In an ELISA, binding on a coated surface is turned into a signal by an enzyme label.

In the case of `CC(O)CCO` (stereo not shown) [1,3-butanediol], the figures for the “Anti-oxidation ratio (%)” value in experiment [1] (0.1 wt % in methanol), in experiment [1] (0.5 wt % in methanol) and in experiment [1] (1.0 wt % in methanol) were 2.89%, 1.46% and 1.00%, respectively. In experiment [1], the “change of anti-oxidation ratio with the increase of the concentration” value is on record as “rather decreased”. For the same molecule, in experiment [2] (0.50 wt % in serum-free medium), the “Collagenase (MMP-1)(pg/mL)” value turned out to be 569.1 pg/mL. Also, in experiment [2] (0.50 wt %), the “MMP-1 content relative to untreated control (%)” value was found to be 90.82%.

Consider `C[C@H](O)[C@@H](C)O` [2R,3S-butanediol], for which the “Anti-oxidation ratio (%)” value amounted to 2.23% in experiment [1] (0.1 wt % in methanol) and 3.95% in experiment [1] (0.5 wt % in methanol). Besides, in experiment [1], the “change of anti-oxidation ratio with the increase of the concentration” value is reported as “increased”. The “Collagenase (MMP-1)(pg/mL)” value in experiment [2] (0.05 wt % in serum-free medium) is recorded as 370.2 pg/mL; in experiment [2] (0.10 wt % in serum-free medium), 364.7 pg/mL; in experiment [2] (0.50 wt % in serum-free medium), 324.2 pg/mL; in experiment [2] (1.00 wt % in serum-free medium), 321.4 pg/mL. Moreover, the “MMP-1 content relative to untreated control (%)” value in experiment [2] (0.05 wt %) was 60.78%; in experiment [2] (0.10 wt %) it was 59.80%; in experiment [2] (0.50 wt %), 56.69%; in experiment [2] (1.00 wt %), 62.63%. The “restraining effects of collagenase” value in experiment [2] is “markedly increased”.

As to `C[C@@H](O)[C@@H](C)O` [2R,3R-butanediol], the “Collagenase (MMP-1)(pg/mL)” value turned out to be 390.9 pg/mL in experiment [2] (0.05 wt % in serum-free medium), 443.0 pg/mL in experiment [2] (0.10 wt % in serum-free medium), 327.7 pg/mL in experiment [2] (0.50 wt % in serum-free medium) and 159.1 pg/mL in experiment [2] (1.00 wt % in serum-free medium). Besides, the “MMP-1 content relative to untreated control (%)” value in experiment [2] (0.05 wt %) came out at 56.16%; in experiment [2] (0.10 wt %), 63.45%; in experiment [2] (0.50 wt %), 50.73%; in experiment [2] (1.00 wt %), 27.29%. The “restraining effects of collagenase” value in experiment [2] is reported as “markedly increased”. Also, the production of collagenase entry in experiment [2] (concentration of 1 wt %) is “markedly reduced”.

On to `OCCCO` [1,3-propanediol], for which the figures for the “Anti-oxidation ratio (%)” value in experiment [1] (0.1 wt % in methanol), in experiment [1] (0.5 wt % in methanol) and in experiment [1] (1.0 wt % in methanol) were 5.34%, 2.17% and −1.23%, respectively. For the same molecule, in experiment [1], the “change of anti-oxidation ratio with the increase of the concentration” value is given as “rather decreased”. Moreover, the “Collagenase (MMP-1)(pg/mL)” value in experiment [2] (0.50 wt % in serum-free medium) amounted to 602.9 pg/mL. Further, the “MMP-1 content relative to untreated control (%)” value in experiment [2] (0.50 wt %) turned out to be 94.23%.
